Reference: PMC4850295, “Using a Genetically Encoded Sensor to Identify Inhibitors of Toxoplasma gondii Ca^2+ Signaling” (The Journal of Biological Chemistry, 2016)
“And” between values parts separate entries of the source, which are not always exact repeats. Identical values can stand only once.

Test system: T1, GCaMP5-expressing T. gondii
T1 construct: whole extracellular parasites expressing GCaMP5 Ca2+ sensor
Set-up: species or system GCaMP5-expressing Toxoplasma gondii, extracellular; GCaMP5 fluorescence (cytosolic Ca2+) after 100 uM zaprinast in compound-pretreated extracellular parasites, background-subtracted, relative to zaprinast alone
Conditions: 100 uM zaprinast stimulation, 10 min pretreatment, mean of two replicates, 0.23 h, 10 µM
How it was run: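 Read-out is GCaMP5 calcium fluorescence (ex 485/em 525 nm) taken 4 min after 100 μM zaprinast at 37 °C, following 10 min compound pretreatment at 10 μM in duplicate biological replicates. Values are basal-subtracted fold change versus zaprinast-only controls; parasites held extracellular in Ringer's solution.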

SMILES	fold change in fluorescence relative to zaprinast alone
CCn1c(-c2nonc2N)nc2ccccc21 [SB-693162]	0.7593 and 1.139
Nc1ncnc2occ(-c3ccc(NC(=O)Nc4cc(C(F)(F)F)ccc4F)cc3)c12 [SB-707548-A]	1.011 and 0.2784
Fc1ccc(-c2nc3n(c2-c2ccncc2)CCS3)cc1 [SKF-86002]	1.092

Same assay, conditions: 100 uM zaprinast stimulation; 10 min pretreatment; mean of two replicates; 0.23 h

SMILES	fold change in fluorescence relative to zaprinast alone
COc1ccc2cc(-c3c(-c4ccncc4)nc(-c4ccc([S+](C)[O-])cc4C)n3C)ccc2c1 (stereo not drawn) [SB-630812]	1.111
COc1ccc2cc(-c3c(-c4ccncc4)nc(-c4ccc(S(C)(=O)=O)cc4C)n3C)ccc2c1 [SB-633825]	0.9532
CCCC(=O)Nc1[nH]nc2ncc(-c3cccc4ccccc34)cc12 [SB-642057]	0.9221
Nc1n[nH]c2cnc(-c3ccccc3)cc12 [SB-642124-AAA]	1.394
COc1ccc2cc(-c3nc(-c4ccccc4C(C)C)[nH]c3-c3ccncc3)ccc2c1 [SB-660566]	0.9646
CN1CCC(C(=O)Nc2n[nH]c3nnc(-c4ccccc4)cc23)CC1 [SB-678557-A]	1.083
CN(C)CCOc1ccc(-c2cc(-c3ccc(Cl)c(O)c3)c(-c3ccncc3)[nH]2)cc1 [SB-684387-B]	0.6076
CCN1CCC(C(=O)Nc2n[nH]c3nnc(-c4cccc(F)c4F)cc23)CC1 [SB-686709-A]	1.08
c1ccc(-c2ccnc3[nH]ccc23)cc1 [SB-693578]	1.319
CCN1CCC(CC(=O)Nc2n[nH]c3nnc(-c4cccc(F)c4F)cc23)CC1 [SB-698596-AC]	1.047
O=C(Nc1n[nH]c2nc(-c3ccccc3)c(Br)cc12)C1CC1 [SB-708998]	0.9523
O=C(Nc1n[nH]c2nc(-c3ccccc3)ccc12)C1CC1 [SB-708999]	1.075
O=C(Nc1n[nH]c2nc(-c3ccc(O)cc3)ccc12)C1CC1 [SB-710363]	1.137
COc1cccc(-c2ccc3c(NC(=O)C4CC4)n[nH]c3n2)c1 [SB-710903]	1.151
COc1ccc(-c2ccc3c(NC(=O)C4CC4)n[nH]c3n2)cc1 [SB-711237]	1.177
COc1ccccc1-c1ccc2c(NC(=O)C3CC3)n[nH]c2n1 [SB-711239]	1.107
O=C(Nc1n[nH]c2nc(-c3cccc(O)c3)ccc12)C1CC1 [SB-711805]	0.905
O=C(Nc1n[nH]c2nc(-c3ccccc3O)ccc12)C1CC1 [SB-711880]	1.267
O=C(Nc1n[nH]c2nc(-c3ccc(O)cc3)c(Br)cc12)C1CC1 [SB-725317]	1.144
Nc1ncnc2scc(-c3ccc(NC(=O)Cc4cc(F)ccc4F)cc3)c12 [SB-731254-M]	1.242
O=C(Nc1n[nH]c2cc(-c3cccs3)ccc12)C1CC1 [SB-731284]	1.194
CCN1CCN(CCCC(=O)Nc2n[nH]c3nc(-c4ccc(O)cc4)c(Br)cc23)CC1 [SB-731579]	1.047
O=C(Nc1n[nH]c2cc(-c3ccsc3)ccc12)C1CC1 [SB-732932]	1.052
O=C(Nc1n[nH]c2cc(-c3ccccc3)ccc12)C1CC1 [SB-732941]	1.147
O=C(Nc1n[nH]c2cc(-c3ccccc3F)ccc12)C1CC1 [SB-733371]	0.8641

SMILES	fold change in fluorescence relative to zaprinast alone
CCn1c(-c2ccccc2)nc2cnccc21 [SB-733416]	1.146
CCn1c(-c2ccoc2)nc2cnccc21 [SB-733887]	1.127
O=C(Nc1n[nH]c2cc(-c3cccc(F)c3F)ccc12)C1CC1 [SB-733894]	1.167
Nc1nonc1-c1nc2cnccc2n1C1CCCCC1 [SB-734117]	1.214
O=C(Nc1n[nH]c2nc(-c3ccccc3)c(Cl)cc12)C1CC1 [SB-734909]	1.154
CCn1c(-c2ccncc2)nc2cnccc21 [SB-735216]	1.246
O=C(Nc1n[nH]c2nc(-c3cccs3)c(Br)cc12)C1CC1 [SB-735297]	1.322
O=C(Nc1n[nH]c2cc(-c3cccc(F)c3)ccc12)C1CC1 [SB-735464]	1.069
O=C(Nc1n[nH]c2cc(-c3cc(F)ccc3F)ccc12)C1CC1 [SB-735465]	1.125
O=C(Nc1n[nH]c2cc(-c3ccc(F)cc3)ccc12)C1CC1 [SB-735467]	0.9628
Cn1c(-c2nonc2N)nc2cnccc21 [SB-736290]	1.181
Nc1nonc1-c1nc2cnccc2n1C1CC1 [SB-736302]	1.282
CCn1c(-c2ccccn2)nc2cnccc21 [SB-736398]	1.076
CCn1c(-c2ccc[nH]c2=O)nc2cnccc21 [SB-736715]	0.9368
CCOc1nccc2c1nc(-c1nonc1N)n2CC [SB-737198]	0.8453
O=C(Nc1n[nH]c2cc(-c3ccco3)ccc12)C1CC1 [SB-737447]	1.13
CCn1c(-c2c(N)noc2C)nc2cnccc21 [SB-737856]	0.9935
CCn1c(-c2nonc2N)nc2cncc(Br)c21 [SB-738004]	0.8309
O=C(Nc1n[nH]c2cc(-c3ccoc3)ccc12)C1CC1 [SB-738481]	1.2
NS(=O)(=O)c1ccc(-c2ccc3c(NC(=O)C4CC4)n[nH]c3c2)cc1 [SB-738482]	1.098
CCn1c(-c2nonc2N)nc2ccncc21 [SB-738561]	1.114
O=C(Nc1n[nH]c2nc(-c3ccco3)c(Br)cc12)C1CC1 [SB-739452]	1.083
NS(=O)(=O)c1cccc(-c2ccc3c(NC(=O)C4CC4)n[nH]c3c2)c1 [SB-741905]	1.374
O=C(Nc1n[nH]c2nc(-c3ccco3)c(Br)cc12)C1CCN(Cc2ccccc2)C1 (stereo not drawn) [SB-742034-AC]	0.9039
O=C(Nc1n[nH]c2nc(-c3nccs3)c(Br)cc12)C1CC1 [SB-742251]	1.325

SMILES	fold change in fluorescence relative to zaprinast alone
O=C(Nc1n[nH]c2nc(-c3nccs3)c(Br)cc12)C1CCCC1 [SB-742609]	1.102
O=C(Nc1n[nH]c2nc(-c3cccs3)c(Br)cc12)C1CCCC1 [SB-743341]	0.9376
O=C(Nc1n[nH]c2nc(-c3ccco3)ccc12)C1CC1 [SB-743899]	1.211
CCn1c(-c2nonc2N)nc2c(N3CCCC3)nccc21 [SB-744941]	0.961
CCn1c(-c2nonc2N)nc2cncc(CNC3CCNCC3)c21 [SB-747651-A]	1.501
NCc1ccc(-n2c(-c3nonc3N)nc3cnccc32)cc1 [SB-750140]	1.416
Cn1nc(-c2ccc(NC(=O)Nc3ccc4ccccc4c3)c(F)c2)c2cnc(NCCN3CCOCC3)nc21 [SB-750250-M]	1.757
CCc1nccc2c1nc(-c1nonc1N)n2CC [SB-751148]	1.115
CN(C)CCCn1c(-c2nonc2N)nc2cnccc21 [SB-751399]	1.355
CCn1c(-c2nonc2N)nc2cncc(C(=O)N3CCNCC3)c21 [SB-759335-B]	1.333
CCn1c(-c2nonc2N)nc2cncc(C(=O)N3CC[C@H](N)C3)c21 [SB-772077-B]	1.135
Nc1nc(N)c2[nH]c(-c3ccccc3)nc2n1 [SKF-12778]	1.022
Cn1ncc2c(N)ncnc21 [SKF-18267]	0.9633
CNc1ncnc2[nH]ncc12 [SKF-18355]	1.025
CN(C)c1ncnc2nc[nH]c12 [SKF-31736]	1.087
Fc1ccc(-c2c(-c3ccncc3)nc3n2CCS3)cc1 [SKF-86055]	1.285
CCn1cnc2c(NCc3ccccc3)ncnc21 [SKF-96418]	0.8238
Nc1ncnc2c1ncn2-c1cccc2ccccc12 [SKF-97184]	0.9854
COc1ccc(-n2cnc3c(N)ncnc32)cc1 [SKF-97236]	1.027
CCCCCc1nc2c(N)ncnc2n1CCCCC [SKF-97255]	0.8987
CC(C)(C)c1ccc(-n2cnc3c(N)ncnc32)cc1 [SKF-97263]	1.008
Nc1ncnc2c1nc(-c1ccccc1)n2-c1ccccc1 [SKF-97293]	1.205
CC(C)(C)n1cnc2c(N)ncnc21 [SKF-97359]	1.052
COc1cccc(-n2cnc3c(N)ncnc32)c1 [SKF-97416]	1.043

Same assay, conditions: 0.23 h, 10 µM

SMILES	% of control remaining
O=C(Nc1n[nH]c2nnc(-c3cccnc3)cc12)C1CC1 [SB-675259-M]	1.147
